Eleven molecules from patent publication US20240124454A1, “TRICYCLIC COMPOUND AND USE THEREOF” (NANJING ZAIMING PHARMACEUTICAL CO., LTD., priority 2020, published 2024) can be followed below.

Molecules are shown by their SMILES. Where only a bound is given, the exact number is not on record here.

Holding throughout (format): in vitro ADME
One data set addresses CYP3A4 (Homo sapiens (Human), UniProt P08684). Nature of the data set: CYP3A4 inhibition in human liver microsomes (midazolam substrate). The note with it: human liver microsome. As to the method:
(§1) Test Example 7. Inhibitory Effect of Compound of the Present Application on Enzymatic Activity of CYP2C9, CYP2D6, and CYP3A4
(§2) The inhibition of CYP2C9, CYP2D6, and CYP3A4 activity by the compound of the present application was determined using the following method.
(§3) I. Experimental materials and instruments • 1. Human liver microsome (Corning 452117) • 2. NADPH (Solarbio 705Y021) • 3. Positive substrates diclofenac (Sigma SLBV3438), dextromethorphan (TRC 3-EDO-175-1), and midazolam (Cerilliant FE01161704) • 4. Positive inhibitors sulfaphenazole (D. Ehrenstorfer GmbH 109012), quinidine (TCI WEODL-RE), and ketoconazole (Sigma 100M1091V) • 5. AB Sciex Triple Quad 5500 liquid chromatography-mass spectrometry system
(§4) 1. Preparation of 100 mM phosphate-buffered saline (PBS): 7.098 g Na2HPO4 was weighed. 500 mL pure water was added. The mixture was dissolved by sonication to give solution A. 3.400 g KH2PO4 was weighed. 250 mL pure water was added. The mixture was dissolved by sonication to give solution B. The solution A was placed in a stirrer, and the solution B was slowly added until the pH reached 7.4, so that the 100 mM PBS buffer was prepared.
(§5) 2. A 10 mM NADPH solution was prepared with a 100 mM PBS buffer. A 10 mM stock solution of the compound of the present application was diluted with DMSO to give a compound working solution at a concentration of 200×(6000, 2000, 600, 200, 60, 20, and 0 μM). The positive inhibitor stock solution was diluted with DMSO to give a positive inhibitor working solution at a concentration of 200×(sulfaphenazole, 1000, 300, 100, 30, 10, 3, and 0 μM; quinidine/ketoconazole, 100, 30, 10, 3, 1, 0.3, and 0 μM). Substrate working solutions (120 μM diclofenac, 400 μM dextromethorphan, and 200 μM midazolam) at a concentration of 200× were prepared with water, acetonitrile, or acetonitrile/methanol.
(§6) 3. 2 μL of 20 mg/mL liver microsome solution, 1 μL of substrate working solution, 1 μL of compound working solution, and 176 μL of PBS buffer were taken, mixed well, and placed in a 37° C. water bath for pre-incubation for 15 min. 1 μL of sulfaphenazole, quinidine, or ketoconazole working solution was added to the positive control group instead of the compound working solution. At the same time, 10 mM NADPH solution was placed together in the 37° C. water bath for pre-incubation for 15 min. After 15 min, 20 μL of NADPH was added to each well to initiate the reaction. The mixture was incubated at 37° C. for 5 min (CYP2C9), 20 min (CYP2D6), or 5 min (CYP3A4). All incubated samples were in duplicate. After incubation for the corresponding period of time, 400 μL of icy methanol containing internal standard was added to all samples to stop the reaction. The mixture was vortexed, mixed well, and centrifuged for 40 min at 4° C. at 3220 g. 100 μL of the supernatant was transferred to a feeding plate after the centrifugation was completed, and 100 μL ultrapure water was added. The mixture was well mixed for LC-MS/MS analysis.
(§7) The reduction of metabolite production in the treatment groups versus the control group was compared by the peak area ratios of the sample to the internal standard, and the IC50 value was calculated using Excel XLfit 5.3.1.3.
(§8) Percentages of remaining activity were calculated according to the following formula:
(§9) Remaining activity%=peak area ratio of metabolite to internal standardtest sample/peak area ratio of metabolite to internal standardblank solvent×100%.

The nature of data set [1]: Metabolic stability in human liver microsomes. The note with it: pH 7.4, 1 μM compound, 0.5 mg/mL microsome, NADPH, read-out: Human liver microsome stability t1/2. As to the method:
Test Example 4. Determination of Metabolic Stability of Compound of the Present Application in Liver Microsomes
The metabolic stability of the compound of the present application in liver microsomes was determined using the following method.
I. Experimental materials and instruments • 1. Human liver microsome (Corning 452117), beagle dog liver microsome (XENOTECH D1000), SD rat liver microsome (XENOTECH R1000), and CD-i mouse liver microsome (XENOTECH M1000) • 2. Na2HPO4 (Tianjin Guangfu Fine Chemical Research Institute 20180130) • 3. KH2PO4 (Tianjin Guangfu Fine Chemical Research Institute 20180920) • 4. MgCl2 (Tianjin Guangfu Fine Chemical Research Institute 20191216) • 5. NADPH (Solarbio 1216C022) • 6. Positive control compound verapamil (Sigma MKBV4993V) • 7. AB Sciex API4000 liquid chromatography-mass spectrometry system
1. Preparation of 100 mMV phosphate-buffered saline (PBS): 7.098 g Na2HPO4 was weighed. 500 mL pure water was added. The mixture was dissolved by sonication to give solution A. 3.400 g KH2PO4 was weighed. 250 mL pure water was added. The mixture was dissolved by sonication to give solution B. The solution A was placed in a stirrer, and the solution B was slowly added until the pH reached 7.4, so that the 100 mM PBS buffer was prepared.
2. Preparation of reaction system
The reaction system was prepared as follows:
3. The reaction system was pre-incubated in a 37° C. water bath for 10 min. 40 μL of 10 mM NADPH solution (NADPH was dissolved by 100 mM phosphate-buffered saline) was added to the reaction system with a final concentration of NADPH being 1 mM. A negative control was made by replacing the NADPH solution with 40 μL phosphate-buffered saline. The negative control was used to exclude the effect of chemical stability of the compound itself.
4. The reaction was initiated by adding 4 μL of 100 μM of the compound of the present application and verapamil, the positive control compound, to the reaction system with a final concentration of the compound being 1 μM.
5. After being uniformly mixed in a vortex oscillator, 50 μL incubation sample was respectively taken out at 0.5, 15, 30, 45, and 60 min, and the reaction was stopped by 200 μL glacial acetonitrile containing an internal standard. The sample was centrifuged at 3220 g for 45 min. 90 μL of the supernatant was transferred to a feeding plate after the centrifugation was completed, and 90 μL ultrapure water was added. The mixture was well mixed for LC-MS/MS analysis.
All data were calculated by Microsoft Excel software. The peak area was detected through an extracted ion chromatogram. The in vitro half-life (t1/2) of the compound was determined by linear fitting of the natural logarithm of compound elimination percentage over time.
In vitro half-life (t1/2) was calculated by the slope: […]
The in vitro intrinsic clearance (in μL/min/mg protein) was calculated using the following formula:
in vitro CLint=k×volume of incubation (μL)/amount of proteins (mg)
CLint was intrinsic clearance; k was an elimination rate constant; volume of incubation was the incubation volume (μL); amount of proteins was the amount of protein (mg)

The target of a further data set is CYP2D6 (Homo sapiens (Human), UniProt P10635). Nature of the data set: CYP2D6 inhibition in human liver microsomes (dextromethorphan substrate). The note with it: human liver microsome. As to the method: as §1, §2, §3, §4, §5, §6, §7, §8, §9
Sequence of CYP2D6 (P10635 whole entry): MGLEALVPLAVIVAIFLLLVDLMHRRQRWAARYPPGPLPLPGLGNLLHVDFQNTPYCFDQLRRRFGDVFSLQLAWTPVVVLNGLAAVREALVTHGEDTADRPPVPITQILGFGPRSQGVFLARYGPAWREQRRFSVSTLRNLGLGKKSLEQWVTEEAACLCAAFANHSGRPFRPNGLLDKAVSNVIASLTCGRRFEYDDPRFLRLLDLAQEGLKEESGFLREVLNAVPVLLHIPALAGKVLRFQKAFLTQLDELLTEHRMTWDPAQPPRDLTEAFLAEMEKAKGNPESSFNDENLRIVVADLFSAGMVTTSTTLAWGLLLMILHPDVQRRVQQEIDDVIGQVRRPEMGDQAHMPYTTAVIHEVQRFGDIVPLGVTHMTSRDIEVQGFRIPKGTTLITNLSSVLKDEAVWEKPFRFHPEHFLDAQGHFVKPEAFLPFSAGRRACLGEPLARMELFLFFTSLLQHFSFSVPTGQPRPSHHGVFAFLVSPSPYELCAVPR

Sequence of CYP3A4 (P08684 whole entry): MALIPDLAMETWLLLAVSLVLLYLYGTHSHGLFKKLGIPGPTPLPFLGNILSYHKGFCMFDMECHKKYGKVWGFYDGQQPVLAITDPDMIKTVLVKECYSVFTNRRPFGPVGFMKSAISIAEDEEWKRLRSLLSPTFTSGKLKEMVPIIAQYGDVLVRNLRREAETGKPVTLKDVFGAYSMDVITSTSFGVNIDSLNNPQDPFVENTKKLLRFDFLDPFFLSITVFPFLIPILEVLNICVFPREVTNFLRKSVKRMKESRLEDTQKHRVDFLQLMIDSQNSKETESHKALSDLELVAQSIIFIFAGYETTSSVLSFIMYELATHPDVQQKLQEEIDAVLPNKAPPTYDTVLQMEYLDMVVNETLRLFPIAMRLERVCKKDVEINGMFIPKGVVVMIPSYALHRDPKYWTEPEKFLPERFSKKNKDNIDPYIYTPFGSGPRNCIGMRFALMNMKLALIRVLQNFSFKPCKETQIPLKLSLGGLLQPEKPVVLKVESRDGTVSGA

As to `Cc1ncccc1-n1c(=O)c2ncn(C)c2c2ccc(C(F)(F)F)nc21` (atropisomer, axis not shown) [Compound 20, 1-methyl-5-(2-methylpyridin-3-yl)-7-(trifluoromethyl)-1,5-dihydro-4H-imidazo[4,5-c][1,8]naphthyridin-4-one], the IC50 at CYP3A4 and on CYP2D6 was more than 30 µM throughout. In addition, the half-life at 1 μM in data set [1] is more than 5 h.

Regarding `Cn1cnc2c(=O)n(-c3cccc(F)c3Cl)c3nc(C(F)(F)F)ccc3c21` (atropisomer, axis not shown) [Compound 25, 5-(2-chloro-3-fluorophenyl)-1-methyl-7-(trifluoromethyl)-1,5-dihydro-4H-imidazo[4,5-c][1,8]naphthyridin-4-one], the IC50 against CYP3A4 and against CYP2D6 was more than 30 µM each time. In addition, the half-life at 1 μM in data set [1] is more than 5 h.

As for `Cn1cnc2c(=O)n(-c3cccc(F)c3Cl)c3nc(C(F)(F)F)ccc3c21` (single isomer, unassigned) [Compound 25-P2, 5-(2-chloro-3-fluorophenyl)-1-methyl-7-(trifluoromethyl)-1,5-dihydro-4H-imidazo[4,5-c][1,8]naphthyridin-4-one], the IC50 on CYP3A4 and against CYP2D6 was more than 30 µM in each case. Moreover, the half-life at 1 μM in data set [1] is more than 5 h.

For the molecule `Cn1cnc2c(=O)n(-c3cccnc3C(F)(F)F)c3nc(C(F)(F)F)ccc3c21` (single isomer, unassigned) [Compound 41-P2, 1-methyl-7-(trifluoromethyl)-5-(2-(trifluoromethyl)pyridin-3-yl)-1,5-dihydro-4H-imidazo[4,5-c][1,8]naphthyridin-4-one], the results for the IC50 against CYP3A4 and against CYP2D6 were more than 30 µM and 18.2 µM, respectively. Also, the half-life at 1 μM in data set [1] was more than 5 h.

As for `Cn1cnc2c(=O)n(-c3cccnc3C3CC3)c3nc(C(F)(F)F)ccc3c21` (single isomer, unassigned) [Compound 42-P2, 5-(2-cyclopropylpyridin-3-yl)-1-methyl-7-(trifluoromethyl)-1,5-dihydro-4H-imidazo[4,5-c][1,8]naphthyridin-4-one], the IC50 against CYP3A4 and against CYP2D6 was more than 30 µM each time. The half-life at 1 μM in data set [1] is 4.26 h.

On to `Cn1cnc2c(=O)n(-c3cccnc3C3CC3)c3cc(C(F)(F)F)ccc3c21` (single isomer, unassigned) [Compound 48-P2, 5-(2-cyclopropylpyridin-3-yl)-1-methyl-7-(trifluoromethyl)-1,5-dihydro-4H-imidazo[4,5-c]quinolin-4-one], for which the IC50 against CYP3A4 and against CYP2D6 was more than 30 µM throughout. For the same molecule, the half-life at 1 μM in data set [1] was more than 5 h.

For `Cn1cnc2c(=O)n(-c3cccnc3C3CC3)c3cc(Cl)ccc3c21` (single isomer, unassigned) [Compound 49-P2, 7-chloro-5-(2-cyclopropylpyridin-3-yl)-1-methyl-1,5-dihydro-4H-imidazo[4,5-c]quinolin-4-one], the IC50 at CYP3A4 and on CYP2D6 was more than 30 µM each time. The half-life at 1 μM in data set [1] came out at 3.78 h.

Take `O=c1c2ncoc2c2ccc(C(F)(F)F)nc2n1-c1cccnc1C1CC1` (single isomer, unassigned) [Compound 81-P2, 5-(2-cyclopropylpyridin-3-yl)-7-(trifluoromethyl)oxazolo[4,5-c][1,8]naphthyridin-4(5H)-one]: the IC50 against CYP3A4 and against CYP2D6 was more than 30 µM in each case. Besides, the half-life at 1 μM in data set [1] is more than 5 h.

As to `Cn1cnc2c(=O)n(-c3cccc(F)c3Cl)c3cc(Cl)ccc3c21` [Compound 39, 7-chloro-5-(2-chloro-3-fluorophenyl)-1-methyl-1,5-dihydro-4H-imidazo[4,5-c]quinolin-4-one], the half-maximal inhibitory concentration (IC50) against CYP3A4 and against CYP2D6 was more than 30 µM in each case.

Regarding `Cc1ncccc1-n1c(=O)c2ncoc2c2ccc(C(F)(F)F)nc21` [Compound 40, 5-(2-methylpyridin-3-yl)-7-(trifluoromethyl)oxazolo[4,5-c][1,8]naphthyridin-4(5H)-one], the IC50 on CYP3A4 and on CYP2D6 was more than 30 µM in each case. Moreover, the half-life at 1 μM in data set [1] was more than 5 h.

For `Cc1ncccc1-n1c(=O)c2ncn(C)c2c2ccc(C(F)(F)F)cc21` [Compound 45, 1-methyl-5-(2-methylpyridin-3-yl)-7-(trifluoromethyl)-1,5-dihydro-4H-imidazo[4,5-c]quinolin-4-one], the IC50 at CYP3A4 and against CYP2D6 was more than 30 µM each time. Also, in data set [1], the half-life at 1 μM is more than 5 h.
